Results published in patent publication US12012639B2, “Processes for isolation and recovery of C5 sugars” (University of Louisville Research Foundation, Inc., priority 2017, dated 2024).

Columns and labels:
solubility in water = type: physicochemical
[1] = solubility in ethyl acetate; type: physicochemical; conditions: at 25° C.

Row | SMILES | solubility of PBA in water (solubility in water; at 25° C.) [g PBA per 100 g H2O] | volume of ethyl acetate that dissolves 1 gram [1] [mL] | solubility in H2O (in words) (solubility in water; H2O)
1 | OB(O)c1ccccc1 [PBA, phenyl boronic acid, reference compound] | 2.5 |  | 
2 | c1ccc(B2OCC3OC4OB(c5ccccc5)OC4C3O2)cc1 (stereo not drawn) [XDE, xylose phenylboronic diester] |  | 5 | extremely insoluble
